Data on 21 molecules can be found in PubChem BioAssay (NCI).

Common to all, as to assay: NCI anticancer screen, dose series, 48 h
Experiment [1] relates to BT-549 breast.
Experiment [2] has as its system PC-3 prostate.
Experiment [3] concerns HS 578T breast.
Experiment [4] concerns MDA-N.

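96-well plates; 48 h exposure; 5 concentrations. Endpoints by linear interpolation between flanking doses. Not reached: highest tested concentration assigned. Abbreviation: GI50, concentration required for 50% inhibition of growth. At the TGI there is no net growth.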 Where only a bound is given, the exact number is not on record here.

In the case of `COc1cc2c(NCCCCCCO[N+](=O)[O-])ncnc2c(OC)c1OC`, the TGI in experiment [1] was 56 µM; in experiment [2], 63.4 µM; in experiment [3] it was > 87.4 µM; in experiment [4] it was 56.4 µM.
With `Clc1cccc(NC=Nc2ccc(-c3nc4ccccc4s3)cc2)c1`, the GI50 is 23.3 µM in experiment [1], 12.1 µM in experiment [2] and 32.6 µM in experiment [3]. Further, the TGI in experiment [1], in experiment [2] and in experiment [3] was > 50 µM throughout.
On to `CN1CCN(Cc2ccc(NC(=O)c3cncc(C#Cc4cnc(N)c5ccccc45)c3)cc2C(F)(F)F)CC1`, for which the GI50 in experiment [1] was 1.57 µM; in experiment [2], 0.442 µM; in experiment [3], 0.371 µM. In addition, the TGI in experiment [1] came out at 5.8 µM; in experiment [2], 1.36 µM; in experiment [3] it was 1.18 µM.
`CN(C)S(=O)(=O)Nc1ccccn1`: the TGI in experiment [1], in experiment [2], in experiment [3] and in experiment [4] was > 100 µM throughout.
As to `O=C1CSC(N2CCN(c3cccc(Cl)c3)CC2)=N1`, the GI50 in experiment [1], in experiment [2] and in experiment [3] was > 100 µM in each case. Besides, the TGI in experiment [1], in experiment [2] and in experiment [3] was > 100 µM each time.
Consider `CCN1CCN(c2nc(NCCNc3ccnc4cc(Cl)ccc34)c3ccccc3n2)CC1`, for which the GI50 in experiment [1] is 2.01 µM; in experiment [2] it was 2.4 µM; in experiment [3], 2.19 µM. Also, the TGI in experiment [1] is 5.39 µM; in experiment [2], 15.7 µM; in experiment [3] it was 7.36 µM.
With `O=C1c2ccccc2-c2c1c1cc3c(cc1c(=O)n2CCCCl)OCO3`, the GI50 in experiment [1] is 45.9 µM; in experiment [2] it was 42.7 µM; in experiment [3], > 100 µM. Further, the TGI in experiment [1], in experiment [2] and in experiment [3] was > 100 µM in each case.
Regarding `CCCNC(=O)OCc1c(COC(=O)NCCC)c(-c2ccc(Cl)c(Cl)c2)n2c1CCC2`, the TGI in experiment [1] was determined as 15.9 µM; in experiment [2] it was 28.4 µM; in experiment [3], 26.2 µM.
For `NNC(=O)c1cnn(-c2ccnc3c(C(F)(F)F)cccc23)c1N`, the GI50 in experiment [1], in experiment [2] and in experiment [3] was > 100 µM each time. Moreover, the TGI in experiment [1], in experiment [2] and in experiment [3] was > 100 µM in each case.
With `O=[n+]1c(CBr)c(CBr)n([O-])c2ccccc21`, the GI50 in experiment [1] is 1.85 µM; in experiment [2], 13.4 µM; in experiment [3] it was 17 µM. Moreover, the TGI worked out at 5.13 µM in experiment [1], 31.1 µM in experiment [2] and 45.3 µM in experiment [3].
For `Cn1cc(C2=C(c3ccc(OC[C@@H](O)CO)cc3)C(=O)NC2=O)c2ccccc21`, the GI50 was > 25 µM in experiment [1], > 25 µM in experiment [2] and 7.87 µM in experiment [3]. In addition, the TGI in experiment [1], in experiment [2] and in experiment [3] was > 25 µM in each case.
For the molecule `CN(C)CCNc1nc2ccccc2c2[nH]c3ccccc3c12`, the GI50 was 2.58 µM in experiment [1], 0.574 µM in experiment [2] and 4.01 µM in experiment [3]. The TGI in experiment [1] was found to be 8.83 µM; in experiment [2], 2.8 µM; in experiment [3], 13.6 µM.
For `COc1cc2c(c(OC)c1OC)-c1ccc(NCc3ccccc3)c(=O)cc1[C@@H](NC(C)=O)CC2`, the results for the GI50 in experiment [1], in experiment [2] and in experiment [3] were 1.41 µM, 0.406 µM and 0.362 µM, respectively. Moreover, the TGI in experiment [1] turned out to be 26.1 µM; in experiment [2], 43.7 µM; in experiment [3], 43 µM.
On to `Cn1c(-c2nonc2N)nc2cnccc21`, for which the figures for the GI50 in experiment [1], in experiment [2] and in experiment [3] were 17.6 µM, > 25 µM and 14.9 µM, respectively. The TGI in experiment [1], in experiment [2] and in experiment [3] was > 25 µM each time.
As for `CC[n+]1ccc2c(c1)C(=O)c1nccc3c1c-2nc1ccccc13`, the GI50 was 0.832 µM in experiment [1], 1.81 µM in experiment [2] and 0.955 µM in experiment [3]. Also, the TGI in experiment [1] is 3.12 µM; in experiment [2], 16.2 µM; in experiment [3] it was > 10.1 µM.
Take `OC(c1cccc(C(F)(F)F)c1)c1cnccc1NC1CCCCCC1` (configuration not stated): the GI50 in experiment [1] is 2.13 µM; in experiment [2], 1.53 µM; in experiment [3], 2.04 µM. The results for the TGI in experiment [1], in experiment [2] and in experiment [3] were 5.47 µM, 4.65 µM and 5.57 µM, respectively.
Turning to `Fc1ccc(-c2nn(-c3ccccc3)cc2-c2nc3ccccc3o2)cc1`, the GI50 was 2.97 µM in experiment [1], 0.491 µM in experiment [2] and 6.48 µM in experiment [3]. Also, the TGI is 21.4 µM in experiment [1], > 100 µM in experiment [2] and 66.5 µM in experiment [3].
As for `COc1nc2c(cc1S(=O)(=O)c1ccccc1)CCc1c-2cnn1-c1ccccc1Cl`, the GI50 was 3.49 µM in experiment [1], 3.09 µM in experiment [2] and 4.7 µM in experiment [3]. Further, the TGI in experiment [1], in experiment [2] and in experiment [3] was > 100 µM each time.
For `CCOc1ccc2nc(NC(=O)/C(CC(=O)CC(C3=C(O)c4ccccc4CC3=O)c3ccccc3)=N\O)sc2c1` (configuration not stated), the TGI in experiment [1], in experiment [2], in experiment [3] and in experiment [4] was > 100 µM each time.
Turning to `CC1=C(CCCOC(=O)NCCCl)C2=C(C)C3(CC3)[C@@](C)(O)C(=O)C2=C1`, the GI50 in experiment [1] was 2.08 µM; in experiment [2], 4.01 µM; in experiment [3], 8.31 µM. Further, the TGI in experiment [1] is 6.66 µM; in experiment [2], > 100 µM; in experiment [3], 87.4 µM.
In the case of `COc1ccc(CN2CCCC(C(=O)c3ccc(C(F)(F)F)cc3)C2)c(O)c1` (configuration not stated), the GI50 in experiment [1] was 24.3 µM; in experiment [2] it was 26.3 µM; in experiment [3], 24.7 µM. The TGI is 71.9 µM in experiment [1], > 100 µM in experiment [2] and > 100 µM in experiment [3].
